Columns and labels:
[1] = wn = mass fraction of the nth substance listed; conditions: 85 kPa, Liquid, Vibrating tube method
[2] = mn = molality of the nth substance listed, in mol/kg; conditions: 85 kPa, Liquid, Vibrating tube method
[3] = 85 kPa, Liquid, Vibrating tube method

CCO [ethanol] + O
mass density [kg/m3], [1]
Conditions | 298.15 K | 303.15 K | 308.15 K | 313.15 K
w1 = 0.04 | 990.13 | 988.79 | 987.24 | 985.42
w1 = 0.08 | 983.9 | 982.43 | 980.77 | 978.85
w1 = 0.16 | 972.57 | 970.69 | 968.6 | 966.4

CO [methanol] + O
mass density [kg/m3], [1]
Conditions | 298.15 K | 303.15 K | 308.15 K | 313.15 K
w1 = 0.04 | 989.97 | 988.62 | 987.03 | 985.22
w1 = 0.08 | 982.92 | 981.47 | 979.91 | 978.12
w1 = 0.16 | 969.42 | 967.61 | 965.92 | 963.68

CCCO [propan-1-ol] + O
mass density [kg/m3], [1]
Conditions | 298.15 K | 303.15 K | 308.15 K | 313.15 K
w1 = 0.04 | 990.59 | 989.14 | 987.49 | 985.62
w1 = 0.08 | 985.46 | 983.86 | 982.13 | 980.12
w1 = 0.16 | 973.64 | 971.45 | 969.08 | 966.84

CCCCCCCCCCCC(=O)N(C)CC(=O)[O-].[Na+] [sodium [dodecanoyl(methyl)amino]acetate] + O
mass density [kg/m3], [2]
Conditions | m1 = 0.02 | m1 = 0.03 | m1 = 0.04 | m1 = 0.05 | m1 = 0.06 | m1 = 0.07 | m1 = 0.08 | m1 = 0.09
298.15 K | 998.13 | 998.42 | 998.73 | 999.03 | 999.43 | 999.67 | 1000.07 | 1000.37
303.15 K | 996.67 | 996.99 | 997.32 | 997.61 | 997.96 | 998.27 | 998.59 | 998.88
308.15 K | 995.04 | 995.33 | 995.67 | 995.93 | 996.27 | 996.56 | 996.88 | 997.14
313.15 K | 993.18 | 993.48 | 993.8 | 994.06 | 994.41 | 994.7 | 994.95 | 995.27

O [water]
[3]
Conditions | mass density [kg/m3]
298.15 K | 997.29
303.15 K | 995.9
308.15 K | 994.27
313.15 K | 992.46

Source: the NIST ThermoML archive (doi:10.1021/acs.jced.6b01058)
